Data set [1] can be described thus: Tmax in BALB/c mouse at 20 mg/kg, ip. The data set is classed as ADME, organism-based. The arrangement: dose 20 mg/kg, route intraperitoneal. To be noted: in vivo.
Data set [2] in a line: Drug level in BALB/c mouse blood at 20 mg/kg, ip. The data set is classed as ADME, organism-based. The arrangement: dose 20 mg/kg, route intraperitoneal. To be noted: read-out: Drug uptake.
Data set [3] deals with Mus musculus. The data set is described as follows: Toxicity in BALB/c mouse assessed as change in body weight at 5 mg/kg, ip bid for 14 days. In kind it is organism-based. The arrangement: dose 5 mg/kg, route intraperitoneal. To be noted: in vivo, 336 h.
Data set [4] relates to Mus musculus. The data set is described as follows: Toxicity in BALB/c mouse assessed as change in body weight at 50 mg/kg, ip bid for 14 days. In kind it is organism-based. The arrangement: dose 50 mg/kg, route intraperitoneal. Particulars: in vivo, 336 h.
For data set [5], the system named is Mus musculus. The data set is described as follows: Toxicity in BALB/c mouse assessed as acute whole-body effect at 5 mg/kg, ip bid for 14 days. The data set is classed as organism-based. The arrangement: dose 5 mg/kg, route intraperitoneal. To be noted: in vivo, 336 h.
The test system of data set [6] is Mus musculus. The data set can be described thus: Toxicity in BALB/c mouse assessed as acute whole-body effect at 50 mg/kg, ip bid for 14 days. In kind it is organism-based. Also noted: dose 50 mg/kg, route intraperitoneal. Particulars: in vivo, 336 h.
Data set [7] deals with Mus musculus. The data set can be described thus: Toxicity in BALB/c mouse assessed as subacute whole-body effect at 5 mg/kg, ip bid for 14 days. In kind it is organism-based. Also noted: dose 5 mg/kg, route intraperitoneal. Particulars: in vivo, 336 h.
For data set [8], the system named is Mus musculus. The data set can be described thus: Toxicity in BALB/c mouse assessed as subacute whole-body effect at 50 mg/kg, ip bid for 14 days. The data set is classed as organism-based. Also noted: dose 50 mg/kg, route intraperitoneal. Particulars: in vivo, 336 h.
For data set [9], the system named is Mus musculus. The data set is described as follows: Toxicity in BALB/c mouse assessed as ruffled fur at 50 mg/kg, ip bid for 14 days. In kind it is organism-based. The arrangement: dose 50 mg/kg, route intraperitoneal. To be noted: in vivo, 336 h.
Data set [10] deals with Human immunodeficiency virus 1. The data set is described as follows: Antiviral activity against HIV1 JR-FL infected in human PBMC transplanted NOD/SCID/Janus kinase 3 knockout mouse assessed as increase of CD4/CD8 ratio in PBMC at 0.5 mg/kg, ip bid for 15 days by flow cytometry. The data set is classed as functional. To be noted: route intraperitoneal.
In data set [11] the test system is Mus musculus. The data set is described as follows: Toxicity in HIV1 JR-FL infected human PBMC transplanted NOD/SCID/Janus kinase 3 knockout mouse assessed as adverse effect at 0.5 mg/kg, ip bid for 15 days. The data set is classed as organism-based. The arrangement: dose 0.5 mg/kg, route intraperitoneal. To be noted: in vivo, 360 h.
Data set [12] relates to Human immunodeficiency virus 1. The data set is described as follows: Antiviral activity against HIV1 JR-FL infected in human PBMC transplanted NOD/SCID/Janus kinase 3 knockout mouse assessed as decrease of p24 expressing human CD4+ cells in peritoneal cavity cells at 0.5 mg/kg, ip bid for 15 days by flow cytometry. The data set is classed as functional, organism-based. Also noted: dose 0.5 mg/kg.

In data set [13] the test system is Human immunodeficiency virus 1. The data set is described as follows: Antiviral activity against HIV1 JR-FL infected in human PBMC transplanted NOD/SCID/Janus kinase 3 knockout mouse assessed as decrease of p24 expressing human CD4+ cells in PBMC at 0.5 mg/kg, ip bid for 15 days by flow cytometry. The data set is classed as functional, organism-based. Also noted: dose 0.5 mg/kg. A general note: A flow cytometer gives signals particle by particle.

In data set [14] the test system is Human immunodeficiency virus 1. The data set can be described thus: Antiviral activity against HIV1 JR-FL infected in human PBMC transplanted NOD/SCID/Janus kinase 3 knockout mouse assessed as decrease of p24 expressing human CD3+ cells in spleen cells at 0.5 mg/kg, ip bid for 15 days by flow cytometry. The arrangement: scale not given: the % may be the effect or the level left. In kind it is functional. To be noted: route intraperitoneal.

Data set [15] concerns Human immunodeficiency virus 1. The data set is described as follows: Antiviral activity against HIV1 JR-FL infected in human PBMC transplanted NOD/SCID/Janus kinase 3 knockout mouse assessed as increase of CD4/CD8 ratio in spleen at 0.5 mg/kg, ip bid for 15 days by flow cytometry. In kind it is functional, organism-based. The arrangement: dose 0.5 mg/kg.
For data set [16], the system named is Human immunodeficiency virus 1. The data set can be described thus: Antiviral activity against HIV1 JR-FL infected in human PBMC transplanted NOD/SCID/Janus kinase 3 knockout mouse assessed as increase of CD4/CD8 ratio in peritoneal cavity at 0.5 mg/kg, ip bid for 15 days by flow cytometry. Also noted: dose 0.5 mg/kg. The data set is classed as functional, organism-based.

In data set [17] the test system is Human immunodeficiency virus 1. The data set can be described thus: Antiviral activity against HIV1 JR-FL infected in human PBMC transplanted NOD/SCID/Janus kinase 3 knockout mouse assessed as decrease of viral p24 antigen level in plasma at 0.5 mg/kg, ip bid for 15 days by ELISA. In kind it is functional. To be noted: route intraperitoneal.
Data set [18] relates to Human immunodeficiency virus 1. The data set can be described thus: Antiviral activity against HIV1 JR-FL infected in human PBMC transplanted NOD/SCID/Janus kinase 3 knockout mouse assessed as decrease of viremia in plasma at 0.5 mg/kg, ip bid for 15 days by ELISA. The data set is classed as functional, organism-based. The arrangement: dose 0.5 mg/kg. On the technique in general: ELISA stands for enzyme-linked immunosorbent assay.

Calls of active or inactive are those of the source. No cut-off for these calls is given here.

For orientation: Tmax means the time from dosing to the highest level. `C#C[C@]1(CO)O[C@@H](n2cnc3c(N)nc(F)nc32)C[C@@H]1O` [ISLATRAVIR]: in [1], the Tmax is 10 min. In data set [2], the AUC was 4.99 µg·h/mL. The Activity entry in the data set with Mus musculus [3], in the data set with Mus musculus [4], in the data set on Mus musculus [5], in the data set with Mus musculus [6], with Mus musculus [7] and in the data set with Mus musculus [8] was “Non-toxic” in each case. Moreover, the Activity result in the data set on Mus musculus [9] is on record as “Non-toxic”; in the data set on Mus musculus [11], “Non-toxic”; in data set [14], 0.11%; in data set [17] it was 2.1 ×10² pg/ml. Besides, the Ratio in [10] stood at 0.65. For the same compound, the result in data set [12], in data set [13], in [15], in [16] and in [18] was Active.

Source of the values: ChEMBL document CHEMBL1687737, “Potent activity of a nucleoside reverse transcriptase inhibitor, 4'-ethynyl-2-fluoro-2'-deoxyadenosine, against human immunodeficiency virus type 1 infection in a model using human peripheral blood mononuclear cell-transplanted NOD/SCID Janus kinase 3 knockout mice” (Antimicrob Agents Chemother, 2009).
